Measurements as given in patent US20210161915A1, “GABA-A ANTAGONISTS FOR TREATING SUBSTANCE […]” (ASARINA PHARMA APS, priority 2018, published 2021).
“Also recorded” adds a separate entry of the source. Where two headings read alike, the source gives them in different places.

Key:
[1] = target: T1, human alpha1,beta2,gamma2 Long GABAA receptor subtype (Homo sapiens, UniProt P14867+P47870); assay: Patch-clamp (Dynaflow system) current response in HEK-293 cells transfected with alpha1,beta2,gamma2 Long GABAA receptor; assay type: cell-based
T1 construct: expressed in transfected cells; host or cells: HEK-293
Protocol: (§1) In these tests the protocol was optimized to be similar to the physiological conditions in the synaptic cleft.
(§2) Cell culture: HEK-293 cells, permanently transfected with the human alpha1,beta,gamma and alpha4,beta,delta GABAA receptor subtypes, were seeded at a density of 3×10^4/25 cm^2 in a culture flask. The transfected cells were used for patch-clamp experiments 3 days after seeding. When using the cells for patch-clamp experiments the cells were washed twice with oxygen-bubbled extra cellular (EC) solution (see below). About 5 mL EC was then added and the cells were kept in the incubator for about 15 minutes. After 15 minutes the cells came loose from the bottom of the flask and were separated by carefully sucking a couple of times with a Pasteur pipette.
(§3) Dynaflow™ system with Resolve chip was used for patch-clamp experiments: The electrophysiological recordings from HEK-293 cells were performed under voltage-clamp conditions using patch-clamp technique and the Dynaflow™ system (Dynaflow Pro II Platform Zeiss Axiovert 25; Cellectricon AB, Sweden) with Resolve chips as application system.
(§4) Patch pipettes were pulled from borosilicate glass and polished to a resistance 2-5 MΩ when filled with suitable intracellular solution (IC) (pH was adjusted to 7.2) and immersed in bath solution (extracellular, EC) (pH is adjusted to 7.4).
(§5) The recordings were made using an Axopatch 200B amplifier, a Digidata 1322A (Axon instruments, Foster city, USA). Data were analysed using the pCLAMP software sampled at 10 kHz, filtered at 2-10 kHz and analyzed with Clampfit (versions 9.0, both from Axon instruments, Foster city, USA). No higher series resistance than 20 MΩ between pipette and cell membrane was accepted. No series resistance compensation was used. The stability of series resistance was monitored repeatedly from the time course of capacitative transients during the experiments. The measured liquid-junction potential between EC and IC was subtracted in all data presented. All experiments were performed at room temperature (21-23° C.).
(§6) All steroids were dissolved to the concentration of 6 mM in DMSO. […] End solutions were the solutions added into the wells of the chip.
(§7) Electrophysiology: After compensating for the liquid junction potential a steady holding potential of −17 mV was used in all experiments. […] By using the holding potential of −17 mV and the intracellular solution with low chloride ion concentration the chloride ions flux into the cell when the receptors were activated.
The Dynaflow system allowed application of solutions for as short as 40 ms up to minutes in time.
In the experiments, THDOC and 3alpha-OH-adiol were used as the positive GABAA receptor modulating steroids.
(§8) Different incubation times were studied to achieve the optimal time for attaining stable results and minimize the washout time.
Study design: Studies were conducted on current response mediated by chloride ion flux through the GABAA receptor. […] The same patch-clamp technique was used as described above (Example 1) using the Dynaflow™ application system. THDOC was used as positive GABAA receptor modulating steroid as it has shorter washout time compared to allopregnanolone but works with the same mechanisms on the same GABAA receptor binding site as allopregnanolone.
HEK-293 cells, permanently transfected with cDNA expressing the human alpha1,beta2,gamma2 Long GABAA receptor subtype. The tissue culture and the handling of the cells were as described in Example 1. In the patch-clamp experiments the transfected cells were used minimum two passages after defrosting and 3 days after seeding. The cells were seeded for maximal 25 times.

[2] = target: T2, human alpha4,beta,delta GABAA receptor subtype (Homo sapiens, UniProt P28472+P48169); assay: Patch-clamp (Dynaflow system) current response in HEK-293 cells transfected with alpha4,beta3,delta GABAA receptor; assay type: cell-based
T2 construct: expressed in transfected cells; host or cells: HEK-293
Protocol: as §1, §2, §3, §4, §5, §6, §7
The Dynaflow system allowed application of solutions for as short as 40 ms up to minutes in time. […] There was no difference in response between the second and the third GABA application. Therefore, the first GABA application was always repeated twice and the second response was used in the analysis.
Washout: GABA is quite soluble in water and easy to washout from the receptor. […] Steroids on the other hand were difficult to dissolve in water and also difficult to washout from the receptor. In the experiments, THDOC and 3alpha-OH-adiol were used as the positive GABAA receptor modulating steroids. With 2 minutes washout time, 200 nM THDOC and 3alpha-OH-adiol was completely washed out as shown by neither an accumulative nor a desensitization effect.
as §8

[3] = tested on: female Wistar rats; assay: Allopregnanolone-induced loss of righting reflex (LoR) test; assay type: in vivo, rat; settings: for Animals (%) not showing LoR after allopregnanolone injection: allopregnanolone 2 mg/kg i.v.
Protocol: The compound by 3beta-fluor-5alpha-pregnan-20-one (UC2016) was analyzed for antagonism of the allopregnanolone-induced loss of righting reflex (LoR) in female Wistar rats.
Study design: Allopregnanolone was dissolved 2 mg/ml in 10% 2-hydroxy-beta-cyclodextrin (beta-CD), with the use of ultra sound. 3beta-fluor-5alpha-pregnan-20-one (UC2016) dissolved in MCT (10 mg/ml) was injected s.c. 30 and 60 minutes before i.v. 2 mg/kg allopregnanolone. UC2016, in different concentrations (1-20 mg/kg) were given s.c. 30 or 60 minutes before the acute i.v. allopregnanolone-induced LoR. To study if MCT oil alone interferes with the acute i.v. allopregnanolone-induced LoR, MCT oil was given s.c. 30 or 60 min before the allopregnanolone injection. Doses given were from 1 mg/kg to 20 mg/kg UC2016 s.c.
Animals: Female Wistar rats (n=12) from Taconics, Denmark were used. At arrival rats weighted 250 g. For identification the rats were marked with numbers on their tail with a permanent marker. The animals were housed four in each cage for 6 weeks and thereafter two in each cage at the Umea Centre for Comparative Biology (UCCB) animal facility at Umea University, where also all experiments took place. Housing room temperature was kept at 22-23° C. Lights on and off were monitored 12/12 h light/dark; lights on at 06.00 and off at 18.00. Food and water was available ad libitum. The study protocol was approved by the Regional Ethics Committee of Umeå, Sweden.
Handling: To avoid stress during the experimental session, animals were daily handled the week before testing. Handling included moments used during the test, i.e. holding, tail warming in water, and wrapping in op-blanket.
Solutions: Allopregnanolone (Umecrine AB, batch L00019654), was dissolved in 10% or 30% 2-hydroxypropyl-β-cyclodextrin (HPβ-CD; Sigma, H-107) with the use of ultra sound. MCT oil and Solution of UC2016; 10 mg/ml in MCT oil, were provided by XSpray Microparticles AB (Stockholm).
Allopregnanolone-induced loss of righting reflex (LoR) test: During testing, the rat was weighted, the tail was warmed in water (43° C.) for three minutes, and the rat was wrapped in an op-blanket and hold for injection. The test solution was injected i.v. in one of the tail veins during 30 s (optimal injection rate for allopregnanolone, 4 mg/kg/min, Zhu et al 2001), and the needle then kept in place for additional 30 s. The time point for the end of the actual injection was noted. The rat was then placed in a separate cage and LoR was tested by laying the rat on the right side. Rats with LoR stayed on side, and the time until righting was followed. Rats with no LoR could not be placed on side, as the righting reflex immediate corrected the orientation of the body so that the rat was standing on its paws. The effects of the different injections were followed by the two evaluators for approximately 10 min, and the rat was then taken back to its home cage. LoR is an early event at anesthesia, and this fact is used in the test. Allopregnanolone is a strong anesthetic substance, an agonist at the GABAA receptor, and LoR is in the test induced during the 30 seconds with the injection of the substance. At tests of possible allopregnanolone antagonists, the antagonistic effect is thus observed immediately after the injection, i.e. when the rat is placed in the test cage.

T2 sequence (P48169 36-554): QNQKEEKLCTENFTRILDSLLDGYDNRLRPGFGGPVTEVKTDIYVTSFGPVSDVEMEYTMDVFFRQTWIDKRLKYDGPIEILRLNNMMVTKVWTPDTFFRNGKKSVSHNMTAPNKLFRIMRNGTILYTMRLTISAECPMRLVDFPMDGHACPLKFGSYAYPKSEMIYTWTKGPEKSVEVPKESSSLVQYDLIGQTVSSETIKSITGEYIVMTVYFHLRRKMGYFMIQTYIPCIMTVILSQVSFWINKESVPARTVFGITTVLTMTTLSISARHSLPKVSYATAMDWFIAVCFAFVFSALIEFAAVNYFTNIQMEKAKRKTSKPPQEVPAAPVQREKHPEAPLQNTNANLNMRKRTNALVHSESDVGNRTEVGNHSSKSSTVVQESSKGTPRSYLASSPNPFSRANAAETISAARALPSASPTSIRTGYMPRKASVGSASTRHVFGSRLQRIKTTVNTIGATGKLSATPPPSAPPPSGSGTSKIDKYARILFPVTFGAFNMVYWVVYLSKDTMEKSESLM
T2 sequence (P28472 26-473): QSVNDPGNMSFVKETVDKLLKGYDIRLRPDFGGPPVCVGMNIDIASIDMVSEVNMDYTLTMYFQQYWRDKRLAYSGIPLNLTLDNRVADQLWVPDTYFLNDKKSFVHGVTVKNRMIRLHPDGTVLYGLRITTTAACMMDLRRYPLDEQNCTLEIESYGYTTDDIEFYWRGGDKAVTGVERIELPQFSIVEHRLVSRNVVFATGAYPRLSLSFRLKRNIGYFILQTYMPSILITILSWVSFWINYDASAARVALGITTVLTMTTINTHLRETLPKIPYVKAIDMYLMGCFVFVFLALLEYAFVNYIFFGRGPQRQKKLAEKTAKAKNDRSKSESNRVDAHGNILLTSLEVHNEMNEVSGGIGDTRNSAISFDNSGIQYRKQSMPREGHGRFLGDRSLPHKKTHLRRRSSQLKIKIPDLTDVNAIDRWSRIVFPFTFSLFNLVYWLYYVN
T2 sequence (O14764 17-452 partner limits assumed): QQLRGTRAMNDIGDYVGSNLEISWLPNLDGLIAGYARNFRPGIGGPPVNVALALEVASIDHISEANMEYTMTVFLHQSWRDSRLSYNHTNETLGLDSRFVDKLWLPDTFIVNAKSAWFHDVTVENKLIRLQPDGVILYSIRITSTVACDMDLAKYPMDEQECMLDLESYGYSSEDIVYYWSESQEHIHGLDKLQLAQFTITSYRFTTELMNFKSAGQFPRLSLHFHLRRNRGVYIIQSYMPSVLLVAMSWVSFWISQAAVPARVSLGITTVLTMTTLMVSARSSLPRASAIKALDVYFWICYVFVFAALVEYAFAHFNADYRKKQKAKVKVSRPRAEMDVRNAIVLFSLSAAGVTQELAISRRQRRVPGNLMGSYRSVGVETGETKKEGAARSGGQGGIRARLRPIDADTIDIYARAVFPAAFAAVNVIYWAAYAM
T1 sequence (P14867 28-456): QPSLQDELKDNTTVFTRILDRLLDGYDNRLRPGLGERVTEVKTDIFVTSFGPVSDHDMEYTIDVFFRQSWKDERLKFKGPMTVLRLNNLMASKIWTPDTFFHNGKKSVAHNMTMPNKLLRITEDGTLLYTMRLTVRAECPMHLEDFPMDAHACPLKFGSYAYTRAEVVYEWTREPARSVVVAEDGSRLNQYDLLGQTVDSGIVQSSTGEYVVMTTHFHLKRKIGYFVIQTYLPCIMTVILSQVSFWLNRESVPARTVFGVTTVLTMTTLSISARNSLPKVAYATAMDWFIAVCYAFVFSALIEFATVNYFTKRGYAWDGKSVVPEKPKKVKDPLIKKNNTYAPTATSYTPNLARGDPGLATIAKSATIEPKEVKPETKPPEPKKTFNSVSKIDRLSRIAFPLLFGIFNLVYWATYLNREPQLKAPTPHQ
T1 sequence (P47870 25-512 limits assumed): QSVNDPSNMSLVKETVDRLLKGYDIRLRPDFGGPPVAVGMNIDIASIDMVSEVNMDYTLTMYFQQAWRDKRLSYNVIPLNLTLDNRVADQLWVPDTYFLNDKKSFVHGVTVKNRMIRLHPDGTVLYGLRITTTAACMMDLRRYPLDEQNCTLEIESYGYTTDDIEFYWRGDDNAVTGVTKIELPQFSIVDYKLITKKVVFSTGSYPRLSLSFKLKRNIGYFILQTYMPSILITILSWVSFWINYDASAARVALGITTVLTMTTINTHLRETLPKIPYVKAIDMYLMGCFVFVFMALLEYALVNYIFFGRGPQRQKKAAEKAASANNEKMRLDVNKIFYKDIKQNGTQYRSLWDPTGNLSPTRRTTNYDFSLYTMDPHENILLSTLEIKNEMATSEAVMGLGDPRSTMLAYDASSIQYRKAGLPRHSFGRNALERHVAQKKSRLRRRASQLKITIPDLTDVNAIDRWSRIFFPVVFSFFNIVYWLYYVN
T1 sequence (P18507 40-475 partner): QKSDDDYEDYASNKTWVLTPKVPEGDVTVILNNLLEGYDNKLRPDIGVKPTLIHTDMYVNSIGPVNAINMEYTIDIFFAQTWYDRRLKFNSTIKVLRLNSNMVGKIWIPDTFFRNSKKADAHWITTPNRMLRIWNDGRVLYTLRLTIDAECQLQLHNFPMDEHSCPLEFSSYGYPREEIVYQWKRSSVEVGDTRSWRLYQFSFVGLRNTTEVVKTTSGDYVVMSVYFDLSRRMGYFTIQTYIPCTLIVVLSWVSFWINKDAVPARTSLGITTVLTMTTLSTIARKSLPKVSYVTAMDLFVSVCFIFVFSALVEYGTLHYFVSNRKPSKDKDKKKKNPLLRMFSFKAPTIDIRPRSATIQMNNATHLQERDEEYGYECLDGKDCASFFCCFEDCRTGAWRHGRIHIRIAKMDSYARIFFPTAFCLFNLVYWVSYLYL

C[C@]12CC[C@@H](O)C[C@@H]1CC[C@@H]1[C@@H]2CC[C@]2(C)C(O)CC[C@@H]12 (stereo partly drawn) [Androstanediol, 3alpha-hydroxy-5alpha-androstan-17-ol, reference compound]
EC50 [1]: 3400 nM
Androstanediol effect without GABA ([1]; data not shown): no effect without GABA
EC50 [2]: 380 nM
Baseline shift, current response in absence of GABA, Mean ± SEM pA ([2]; 3 μM Androstanediol): +8 ± 3.6 pA
Baseline shift, current response in absence of GABA, Mean ± SEM pA ([2]; 10 μM Androstanediol): +13 ± 4.8 pA

C[C@]12CC[C@@H](O)C[C@H]1CC[C@@H]1[C@@H]2CC[C@]2(C)[C@@H](C(=O)CO)CC[C@@H]12 [THDOC, Tetrahydrodeoxycorticosterone, reference compound]
Imax/Emax ([1]; 0.03-1 μM THDOC + 30 μM GABA): +115%
THDOC induced tonic effect (baseline shift) ([1]; without GABA): did not induce any baseline shift
Emax, enhancement of GABA mediated current response [2]: 297%
EC50 ([2]; read-out: EC50, enhancement of GABA mediated current response): 47 nM
THDOC induced baseline shift ([2]; without GABA, data not shown): induces a baseline shift

CC(=O)[C@H]1CC[C@H]2[C@@H]3CC[C@H]4C[C@H](O)CC[C@]4(C)[C@H]3CC[C@]12C [Allopregnanolone, allopregnanolone, reference compound]
Induction of LoR ([3]; allopregnanolone 2 mg/kg i.v. alone): induces LoR in all female Wistar rats

CC(=O)[C@H]1CC[C@H]2[C@@H]3CC[C@H]4C[C@@H](F)CC[C@]4(C)[C@H]3CC[C@]12C [UC2016, 3beta-fluor-5alpha-pregnan-20-one]
Antagonism of allopregnanolone induction of LoR ([3]; 1 mg/kg s.c., 60 min before allopregnanolone): clearly antagonized
Inhibition of LoR induction by allopregnanolone ([3]; 5 mg/kg s.c., 30 minutes before allopregnanolone): not
Inhibition of LoR induction by allopregnanolone ([3]; 5 mg/kg s.c., 60 minutes before allopregnanolone): had an inhibitory effect
Inhibition of LoR induction by allopregnanolone ([3]; 10 mg/kg or higher s.c., 30 min before allopregnanolone): inhibited LoR induction
Animals (%) not showing LoR after allopregnanolone injection ([3]; UC2016 1 mg/kg s.c. in MCT oil): 100%
Animals (%) not showing LoR after allopregnanolone injection ([3]; UC2016 2 mg/kg s.c. in MCT oil): 80%
Animals (%) not showing LoR after allopregnanolone injection ([3]; UC2016 10 mg/kg s.c. in MCT oil): 100%
Animals (%) not showing LoR after allopregnanolone injection ([3]; UC2016 20 mg/kg s.c. in MCT oil): 100%
[UC2016] + 30 μM GABA + 200 nM THDOC, Mean ± SEM (%) ([1]; 0.1 μM UC2016): −4.7 ± 3.5%
[UC2016] + 30 μM GABA + 200 nM THDOC, Mean ± SEM (%) ([1]; 0.3 μM UC2016): −11.6 ± 5.5%
[UC2016] + 30 μM GABA + 200 nM THDOC, Mean ± SEM (%) ([1]; 1 μM UC2016): −25.1 ± 3.5%
Imax/Emax, effect on GABA response ([1]; 1 μM UC2016 + 30 μM GABA): −8.6 ± 1.7%
Effect of compound alone (baseline shift) ([1]; 1 μM UC2016, absence of GABA): no effect on baseline shift; also recorded: UC2016 had no effect in absence of GABA
